pEC50: −log10 of the molar value.

The species named for the assay is Rattus norvegicus. As to the kind of experiment: In vitro dose required for stimulation of GH release from rat pituitary cells. As to conditions: Pituitary gland cell, read-out: ED50 (the source's name). The assay is classed as functional.
Take `CC(C)(N)CC(=O)NC1Cc2ccccc2N(Cc2ccc(-c3ccccc3-c3nn[nH]n3)cc2)C1=O` (stereo not given): the pEC50 is 5.70.

For `CC(C)(N)CC(=O)NC1CCc2ccccc2N(Cc2ccc(-c3ccccc3C(=O)O)cc2)C1=O` (stereo not given), the pEC50 was 5.49.

For the compound `CC(C)(N)CC(=O)N[C@@H]1CCc2ccccc2N(Cc2ccc(-c3ccccc3-c3nn[nH]n3)cc2)C1=O`, the pEC50 was 7.22.

In the case of `CC(C)(N)CC(=O)NC1CCCc2ccccc2N(Cc2ccc(-c3ccccc3-c3nn[nH]n3)cc2)C1=O` (stereo not given), the pEC50 was 5.10.

For `CC(C)(N)CC(=O)NC1CCc2ccccc2N(Cc2ccc(-c3ccccc3-c3nn[nH]n3)cc2)C1=O` [L-158432], the pEC50 was 6.80.

Source of the values: ChEMBL document CHEMBL1127685, “A novel 3-substituted benzazepinone growth hormone secretagogue (L-692,429)” (1994).
